The values that follow come from ChEMBL document CHEMBL1132398, “Identification of (-)-cis-6-acetyl-4S-(3-chloro-4-fluoro-benzoylamino)- 3,4-dihydro-2,2-dimethyl-2H-benzo[b]pyran-3S-ol as a potential antimigraine agent” (Bioorg Med Chem Lett, 1999).

Assay [1] has as its system Rattus norvegicus. As to the kind of experiment: In vivo percent increase in seizure threshold in rat MEST model at the dose of 10 mg/kg p.o. recorded 0.25 hr post dose. It is filed as functional. The following applies: route oral.
Assay [2] relates to Rattus norvegicus. Kind of assay: In vivo percent increase in seizure threshold in rat MEST model at the dose of 10 mg/kg p.o. recorded 2 hr post dose. It is filed as functional. Particulars: route oral.
Assay [3] concerns Rattus norvegicus. Kind of assay: In vivo percent increase in seizure threshold in rat MEST model at the dose of 10 mg/kg p.o. recorded 6 hr post dose. The class given is functional. Particulars: route oral.
The subject of assay [4] is Mus musculus. Kind of assay: In vivo percent increase in seizure threshold in mouse MEST model 4 hours following 10 mg/kg p.o. Particulars: at 10 mg/kg.
Assay [5] has as its system Rattus norvegicus. As to the kind of experiment: In vivo percent increase in seizure threshold in rat MEST model at the dose of 10 mg/kg p.o. recorded 0.5 hr post dose. It is filed as functional. Particulars: route oral.
Assay [6] relates to Mus musculus. Kind of assay: In vivo percent increase in seizure threshold in mouse MEST model 1 hour following 10 mg/kg p.o. The following applies: at 10 mg/kg.
Assay [7] concerns Rattus norvegicus. As to the kind of experiment: In vivo percent increase in seizure threshold in rat MEST model at the dose of 10 mg/kg p.o. recorded 1 hr post dose. The class given is functional. The following applies: route oral.
Assay [8] concerns Rattus norvegicus. As to the kind of experiment: In vivo percent increase in seizure threshold in rat MEST model at the dose of 3 mg/kg p.o. recorded 0.5 hr post dose. It is filed as functional. The following applies: route oral.
In assay [9] the test system is Rattus norvegicus. As to the kind of experiment: In vivo percent increase in seizure threshold in rat MEST model at the dose of 3 mg/kg p.o. recorded 1 hr post dose. The class given is functional. The following applies: route oral.
Assay [10] concerns Rattus norvegicus. Kind of assay: In vivo percent increase in seizure threshold in rat MEST model at the dose of 3 mg/kg p.o. recorded 4 hr post dose. It is filed as functional. Particulars: route oral.
Assay [11] concerns Rattus norvegicus. Kind of assay: In vivo percent increase in seizure threshold in rat MEST model at the dose of 3 mg/kg p.o. recorded 2 hr post dose. It is filed as functional. The following applies: route oral.
For assay [12], the system named is Rattus norvegicus. Kind of assay: In vivo percent increase in seizure threshold in rat MEST model at the dose of 3 mg/kg p.o. recorded 6 hr post dose. It is filed as functional. The following applies: route oral.
For assay [13], the species on record is Rattus norvegicus. Kind of assay: Ability to displace [3H]- SB-204269 in the rat forebrain.
Assay [14] concerns Rattus norvegicus. As to the kind of experiment: In vivo percent increase in seizure threshold in rat MEST model at the dose of 3 mg/kg p.o. recorded 0.25 hr post dose. The class given is functional. The following applies: route oral.

On to `CC(=O)c1ccc2c(c1)[C@H](NC(=O)c1cccc(Cl)c1)[C@@H](O)C(C)(C)O2`, for which the Increase in assay [1] came out at 157%; in assay [2], 796%; in assay [3], 983%; in [4] it was 945%; in [5], 273%; in [6], 90%. In assay [7], this compound showed an Increase of 507%.
Regarding `CC(=O)c1ccc2c(c1)[C@H](NC(=O)c1ccc(F)c(Cl)c1)[C@H](O)C(C)(C)O2` [TONABERSAT], the Increase in assay [8] turned out to be 202%; in [9], 369%; in assay [10] it was 533%; in [11], 576%; in assay [12] it was 638%; in assay [14], 76%. In addition, the “Log Ki” value in assay [13] is reported as -7.9.
`CC(=O)c1ccc2c(c1)[C@H](NC(=O)c1ccc(F)cc1)[C@@H](O)C(C)(C)O2` [CARABERSAT]: the Increase in assay [1] stood at 48%; in [2], 420%; in [3] it was 390%; in assay [5], 90%; in assay [7], 180%. The “Log Ki” value in [13] is given as -7.3.
Regarding `CC(=O)c1ccc2c(c1)[C@H](NC(=O)c1ccc(F)cc1Cl)[C@@H](O)C(C)(C)O2`, the Increase in assay [8] was 208%; in assay [9] it was 300%; in assay [10], 900%; in assay [11], 660%; in [4] it was 1080%; in assay [12], 1060%. In addition, the Increase was determined as 90% in [14] and 162% in [6].
Regarding `CC(=O)c1ccc2c(c1)[C@H](NC(=O)c1ccsc1Cl)[C@@H](O)C(C)(C)O2`, the Increase in assay [4] was determined as 519%; in assay [6], 95%.
Turning to `CC(=O)c1ccc2c(c1)[C@H](NC(=O)c1cc(Cl)cc(Cl)c1Cl)[C@@H](O)C(C)(C)O2`, the Increase in [6] is 33%.
Consider `CC(=O)c1ccc2c(c1)[C@H](NC(=O)c1cnccn1)[C@@H](O)C(C)(C)O2`, for which the Increase in assay [6] stood at 15%.
As to `CC(=O)c1ccc2c(c1)[C@H](NC(=O)c1cccc(Cl)c1Cl)[C@@H](O)C(C)(C)O2`, the Increase in assay [1] is listed as 104%; in assay [2], 1124%; in assay [3] it was 1076%; in assay [5], 286%; in [7], 880%.
Take `CC(=O)c1ccc2c(c1)[C@H](NC(=O)c1cccnc1)[C@@H](O)C(C)(C)O2`: the Increase in [6] turned out to be 30%.
As to `CC(=O)c1ccc2c(c1)[C@H](NC(=O)c1ccsc1)[C@@H](O)C(C)(C)O2`, in assay [6], the Increase was found to be 50%.
Consider `CC(=O)c1ccc2c(c1)[C@H](NC(=O)c1ccsc1Cl)[C@H](O)C(C)(C)O2`, for which the Increase in [4] turned out to be 383%; in [6], 47%. For the same compound, the “Log Ki” value in [13] is given as -7.5.
`CC(=O)c1ccc2c(c1)[C@H](NC(=O)c1c(Cl)cccc1Cl)[C@@H](O)C(C)(C)O2` showed an Increase in [6] of 10%.
On to `CC(=O)c1ccc2c(c1)[C@H](NC(=O)c1ccc(F)cc1Cl)[C@H](O)C(C)(C)O2`, for which the Increase is 269% in [4] and 153% in assay [6]. For the same compound, in assay [13], the “Log Ki” value is given as -7.2.
As for `CC(=O)c1ccc2c(c1)[C@H](NC(=O)c1cccc(Cl)c1)[C@H](O)C(C)(C)O2`, the Increase in [4] came to 604%; in assay [6], 93%.
For the compound `CC(=O)c1ccc2c(c1)[C@@H](NC(=O)c1cccc(Cl)c1)[C@@H](O)C(C)(C)O2`, the Log Ki in [13] is more than -5.4.
